Values after ≈ are worked out from the molar mass of the structure shown. Where two headings read alike, the source gives them in different places.
Assays:
human (hACC2) = human (hACC2) (Homo sapiens, UniProt O00763); assay: In vitro ACC inhibition assay (ADP-Glo), hACC2; assay type: biochemical; conditions: 5 nM ACC2, 20 μM ATP, 20 μM acetyl-CoA
Procedure: The detailed procedure is as follows. […] 10 μL ADP glo reagent was added. […] 20 μL kinase detection reagent was added.

C. krusei = assay: Antifungal Activity Assay (broth microtiter MIC), C. krusei; assay type: cell-based, Candida krusei; conditions: Pichia kudriavzevii, ATCC6258, 48 h
Procedure, shortened: (§1)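 MIC read by eye at 48 h, comparing challenged wells with the growth control. Yeasts grown overnight on Sabouraud dextrose agar at 35° C, suspended in RPMI 1640+MOPS and added at 2.5×10^3 CFU/mL final, following CLSI M27-A3.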

C. parapsilosis = assay: Antifungal Activity Assay (broth microtiter MIC), C. parapsilosis; assay type: cell-based, Candida parapsilosis; conditions: Lodderomyces parapsilosis, ATCC22019, 48 h
Procedure, shortened: as §1

Botrtyis cinerea (Bc) = assay: Growth inhibition assay of fungal pathogens, Bc; assay type: cell-based; conditions: 48 h
Procedure, shortened: (§2)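 Spore suspension in 17% V8 liquid media; cpd final 50/10/2 or 2/0.4/0.08 ppm, 2% DMSO. OD600 + visual, 24 & 48 h; % inhibition at 48 h vs 2% DMSO ctrl.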

[1] = tested on: Fusarium moniliforme (Fm); assay: Growth inhibition assay of fungal pathogens, Fm; assay type: cell-based; conditions: for IC90: Fusarium verticillioides, 48 h, read-out: Concentration at 90% Inhibition Fm
Procedure, shortened: as §2

[2] = tested on: Fusarium virguliforme (Fv); assay: Growth inhibition assay of fungal pathogens, Fv; assay type: cell-based; conditions: 48 h
Procedure, shortened: as §2

[3] = tested on: Phytophthora capsici (Pc); assay: Growth inhibition assay of fungal pathogens, Pc; assay type: cell-based; conditions: 48 h
Procedure, shortened: as §2

Rhizoctonia solani (Rs) = assay: Growth inhibition assay of fungal pathogens, Rs; assay type: cell-based; conditions: 48 h
Septoria tritici (St) = assay: Growth inhibition assay of fungal pathogens, St; assay type: cell-based; conditions: Zymoseptoria tritici, 48 h
Procedure, shortened: as §2

fungal (fACC2) = fungal (fACC2) (UniProt Q00955); conditions: read-out: fACC2 (in vitro ACC2 Inhibition Assay, IC50), ADP-Glo, 5 nM ACC2, 20 μM ATP, 20 μM acetyl-CoA
Sequence of fungal (fACC2) (Q00955 whole entry): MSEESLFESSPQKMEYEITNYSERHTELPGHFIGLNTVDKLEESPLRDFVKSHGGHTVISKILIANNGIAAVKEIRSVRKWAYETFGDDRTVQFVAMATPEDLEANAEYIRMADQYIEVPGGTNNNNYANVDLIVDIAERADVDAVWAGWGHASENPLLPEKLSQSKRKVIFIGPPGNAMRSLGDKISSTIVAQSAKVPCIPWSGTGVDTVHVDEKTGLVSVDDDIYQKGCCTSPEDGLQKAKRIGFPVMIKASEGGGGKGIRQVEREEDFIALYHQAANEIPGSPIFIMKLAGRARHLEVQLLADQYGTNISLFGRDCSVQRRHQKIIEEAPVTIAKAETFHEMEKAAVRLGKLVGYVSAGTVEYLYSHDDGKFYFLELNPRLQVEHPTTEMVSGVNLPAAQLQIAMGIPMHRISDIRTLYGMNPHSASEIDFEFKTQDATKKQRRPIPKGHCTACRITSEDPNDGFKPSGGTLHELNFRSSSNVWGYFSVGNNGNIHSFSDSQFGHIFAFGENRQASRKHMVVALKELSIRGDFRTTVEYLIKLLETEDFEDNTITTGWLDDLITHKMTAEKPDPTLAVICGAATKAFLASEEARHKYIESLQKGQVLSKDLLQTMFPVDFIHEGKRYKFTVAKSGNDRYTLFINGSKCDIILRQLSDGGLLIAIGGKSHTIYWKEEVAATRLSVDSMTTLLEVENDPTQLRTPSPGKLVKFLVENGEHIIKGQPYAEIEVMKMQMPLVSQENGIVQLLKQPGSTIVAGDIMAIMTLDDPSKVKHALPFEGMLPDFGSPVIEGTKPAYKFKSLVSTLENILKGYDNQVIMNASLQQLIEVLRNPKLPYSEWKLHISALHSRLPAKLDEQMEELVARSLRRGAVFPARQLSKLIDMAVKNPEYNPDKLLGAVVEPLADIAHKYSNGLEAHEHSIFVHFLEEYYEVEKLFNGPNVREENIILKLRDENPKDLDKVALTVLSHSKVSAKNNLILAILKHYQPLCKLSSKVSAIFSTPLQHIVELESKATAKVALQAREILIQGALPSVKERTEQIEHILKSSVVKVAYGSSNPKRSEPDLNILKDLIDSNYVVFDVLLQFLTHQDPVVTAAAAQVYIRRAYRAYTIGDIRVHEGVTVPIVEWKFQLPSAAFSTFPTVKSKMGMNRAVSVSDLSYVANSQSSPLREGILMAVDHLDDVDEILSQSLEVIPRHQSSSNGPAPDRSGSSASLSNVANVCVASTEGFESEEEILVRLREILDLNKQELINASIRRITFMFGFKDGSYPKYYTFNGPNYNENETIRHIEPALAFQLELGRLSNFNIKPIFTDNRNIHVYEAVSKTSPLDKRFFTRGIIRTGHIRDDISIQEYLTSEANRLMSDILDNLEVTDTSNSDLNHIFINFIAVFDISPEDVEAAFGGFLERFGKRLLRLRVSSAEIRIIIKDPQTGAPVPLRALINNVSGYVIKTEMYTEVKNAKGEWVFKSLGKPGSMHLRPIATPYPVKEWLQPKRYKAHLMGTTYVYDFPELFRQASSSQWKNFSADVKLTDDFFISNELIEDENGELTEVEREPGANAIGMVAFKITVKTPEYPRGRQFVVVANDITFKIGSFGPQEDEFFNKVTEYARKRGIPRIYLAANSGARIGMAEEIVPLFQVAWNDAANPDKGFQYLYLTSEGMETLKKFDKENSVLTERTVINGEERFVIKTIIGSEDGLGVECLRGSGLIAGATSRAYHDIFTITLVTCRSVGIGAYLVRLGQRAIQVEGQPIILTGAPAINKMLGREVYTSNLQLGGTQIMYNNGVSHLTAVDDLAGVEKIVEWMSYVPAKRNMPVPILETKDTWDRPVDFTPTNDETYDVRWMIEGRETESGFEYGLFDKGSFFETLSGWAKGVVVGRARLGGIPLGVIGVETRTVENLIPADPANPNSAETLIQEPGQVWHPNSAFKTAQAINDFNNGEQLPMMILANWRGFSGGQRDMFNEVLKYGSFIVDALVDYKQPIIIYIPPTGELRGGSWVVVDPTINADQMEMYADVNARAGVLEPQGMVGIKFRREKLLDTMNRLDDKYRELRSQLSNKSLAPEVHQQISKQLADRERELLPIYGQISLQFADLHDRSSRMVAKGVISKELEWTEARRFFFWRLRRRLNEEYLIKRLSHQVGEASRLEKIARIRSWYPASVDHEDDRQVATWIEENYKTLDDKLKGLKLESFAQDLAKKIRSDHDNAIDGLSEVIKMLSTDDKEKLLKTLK

[4] = Table 3a, ATCC 6258, 3 replicates, MIC recorded at 48 h, read-out: MIC, C. krusei ATCC 6258
[5] = Table 3b (additional results), ATCC 6258, 3 replicates, MIC recorded at 48 h, read-out: MIC, C. krusei ATCC 6258
[6] = Table 3a, ATCC 22019, 3 replicates, MIC recorded at 48 h, read-out: MIC, C. parapsilosis ATCC 22019
[7] = Table 3b (additional results), ATCC 22019, 3 replicates, MIC recorded at 48 h, read-out: MIC, C. parapsilosis ATCC 22019
[8] = Botrtyis cinerea, growth inhibition at 48 hours vs 2% DMSO control, read-out: Concentration at 90% Inhibition Bc
[9] = Botrtyis cinerea, growth inhibition vs 2% DMSO control at 48 hours, read-out: Concentration at 90% Inhibition Bc
[10] = Fusarium moniliforme, growth inhibition at 48 hours vs 2% DMSO control
[11] = Fusarium moniliforme, growth inhibition vs 2% DMSO control at 48 hours
[12] = growth inhibition at 48 hours vs 2% DMSO control, read-out: Concentration at 90% Inhibition Fv
[13] = growth inhibition vs 2% DMSO control at 48 hours, read-out: Concentration at 90% Inhibition Fv
[14] = growth inhibition at 48 hours vs 2% DMSO control, read-out: Concentration at 90% Inhibition Pc
[15] = growth inhibition vs 2% DMSO control at 48 hours, read-out: Concentration at 90% Inhibition Pc
[16] = mycelial plugs, growth inhibition at 48 hours vs 2% DMSO control, read-out: Concentration at 90% Inhibition Rs
[17] = mycelial plugs, growth inhibition vs 2% DMSO control at 48 hours, read-out: Concentration at 90% Inhibition Rs
[18] = Septoria tritici, growth inhibition at 48 hours vs 2% DMSO control, read-out: Concentration at 90% Inhibition St
[19] = Septoria tritici, growth inhibition vs 2% DMSO control at 48 hours, read-out: Concentration at 90% Inhibition St

Sequence of human (hACC2) (O00763 whole entry): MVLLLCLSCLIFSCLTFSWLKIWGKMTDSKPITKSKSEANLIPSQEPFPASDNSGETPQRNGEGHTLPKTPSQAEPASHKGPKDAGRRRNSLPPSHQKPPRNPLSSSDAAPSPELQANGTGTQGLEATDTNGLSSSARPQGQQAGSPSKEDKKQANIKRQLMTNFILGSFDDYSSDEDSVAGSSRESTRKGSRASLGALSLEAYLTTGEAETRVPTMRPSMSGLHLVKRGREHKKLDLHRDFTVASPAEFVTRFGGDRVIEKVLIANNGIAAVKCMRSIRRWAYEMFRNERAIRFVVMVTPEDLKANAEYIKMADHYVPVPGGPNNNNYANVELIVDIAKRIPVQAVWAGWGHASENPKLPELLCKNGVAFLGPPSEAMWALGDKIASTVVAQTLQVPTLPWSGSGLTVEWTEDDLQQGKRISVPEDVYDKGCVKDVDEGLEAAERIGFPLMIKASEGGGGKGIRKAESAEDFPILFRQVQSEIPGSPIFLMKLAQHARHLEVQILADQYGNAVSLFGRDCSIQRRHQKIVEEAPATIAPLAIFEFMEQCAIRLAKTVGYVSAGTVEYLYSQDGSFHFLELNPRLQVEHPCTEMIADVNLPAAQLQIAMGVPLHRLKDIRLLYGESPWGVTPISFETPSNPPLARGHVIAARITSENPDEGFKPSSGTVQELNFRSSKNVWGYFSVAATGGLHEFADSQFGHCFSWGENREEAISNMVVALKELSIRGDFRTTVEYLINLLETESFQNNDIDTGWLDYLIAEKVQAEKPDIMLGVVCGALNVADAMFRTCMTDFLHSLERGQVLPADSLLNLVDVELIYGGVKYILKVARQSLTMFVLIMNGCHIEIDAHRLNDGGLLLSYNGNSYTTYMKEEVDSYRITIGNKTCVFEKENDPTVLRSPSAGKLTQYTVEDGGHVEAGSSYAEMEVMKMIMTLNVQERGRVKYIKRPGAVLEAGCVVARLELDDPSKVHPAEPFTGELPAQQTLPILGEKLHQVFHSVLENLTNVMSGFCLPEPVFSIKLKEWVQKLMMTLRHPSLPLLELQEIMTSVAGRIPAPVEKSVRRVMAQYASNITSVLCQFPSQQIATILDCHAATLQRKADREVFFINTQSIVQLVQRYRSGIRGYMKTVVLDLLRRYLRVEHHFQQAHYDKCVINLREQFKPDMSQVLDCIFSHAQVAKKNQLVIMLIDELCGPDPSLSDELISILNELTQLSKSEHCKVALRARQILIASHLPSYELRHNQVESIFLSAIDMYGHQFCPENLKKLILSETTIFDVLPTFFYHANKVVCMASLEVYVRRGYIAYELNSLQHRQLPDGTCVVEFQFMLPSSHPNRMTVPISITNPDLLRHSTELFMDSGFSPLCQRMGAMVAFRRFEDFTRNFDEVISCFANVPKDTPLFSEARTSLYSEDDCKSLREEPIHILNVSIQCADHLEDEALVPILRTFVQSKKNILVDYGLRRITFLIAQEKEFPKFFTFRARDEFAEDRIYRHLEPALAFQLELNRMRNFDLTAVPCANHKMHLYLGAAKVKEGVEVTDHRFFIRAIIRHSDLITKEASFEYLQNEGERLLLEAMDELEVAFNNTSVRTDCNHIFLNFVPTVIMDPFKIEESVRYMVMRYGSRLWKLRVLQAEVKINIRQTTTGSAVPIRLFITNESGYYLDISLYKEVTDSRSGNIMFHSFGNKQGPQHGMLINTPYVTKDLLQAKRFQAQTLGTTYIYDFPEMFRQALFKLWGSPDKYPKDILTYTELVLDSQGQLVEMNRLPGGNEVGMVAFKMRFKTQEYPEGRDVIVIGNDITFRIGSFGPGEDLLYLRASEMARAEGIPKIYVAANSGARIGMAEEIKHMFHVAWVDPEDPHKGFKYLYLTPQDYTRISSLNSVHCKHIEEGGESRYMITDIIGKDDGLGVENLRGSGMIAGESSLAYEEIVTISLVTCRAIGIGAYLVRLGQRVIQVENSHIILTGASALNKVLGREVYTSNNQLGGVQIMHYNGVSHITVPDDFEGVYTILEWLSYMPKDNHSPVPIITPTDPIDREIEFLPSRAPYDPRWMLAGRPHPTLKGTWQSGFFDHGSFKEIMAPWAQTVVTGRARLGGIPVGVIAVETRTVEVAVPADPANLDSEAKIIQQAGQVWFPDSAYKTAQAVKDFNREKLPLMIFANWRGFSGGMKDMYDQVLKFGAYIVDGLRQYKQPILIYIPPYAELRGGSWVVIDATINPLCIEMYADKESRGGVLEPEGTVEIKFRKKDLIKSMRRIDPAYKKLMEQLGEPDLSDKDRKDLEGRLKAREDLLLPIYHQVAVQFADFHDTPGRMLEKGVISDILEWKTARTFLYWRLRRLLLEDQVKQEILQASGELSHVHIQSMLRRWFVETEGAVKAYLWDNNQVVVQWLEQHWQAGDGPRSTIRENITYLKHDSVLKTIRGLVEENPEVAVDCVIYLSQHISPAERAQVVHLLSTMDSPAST

| SMILES | IC50 (human (hACC2); Table 2a) [nM] | IC50 (human (hACC2); Table 2b, additional results) [nM] | MIC (C. krusei; [4]) [µg/mL] | MIC (C. krusei; [5]) [µg/mL] | MIC (C. parapsilosis; [6]) [µg/mL] | MIC (C. parapsilosis; [7]) [µg/mL] | IC90 (Botrtyis cinerea (Bc); [8]) [µg/mL] | IC90 (Botrtyis cinerea (Bc); [9]) [µg/mL] | IC90 [1, 10] [µg/mL] | IC90 [1, 11] [µg/mL] | IC90 [2, 12] [µg/mL] | IC90 [2, 13] [µg/mL] | IC90 [3, 14] [µg/mL] | IC90 [3, 15] [µg/mL] | IC90 (Rhizoctonia solani (Rs); [16]) [µg/mL] | IC90 (Rhizoctonia solani (Rs); [17]) [µg/mL] | IC90 (Septoria tritici (St); [18]) [µg/mL] | IC90 (Septoria tritici (St); [19]) [µg/mL] | IC50 (fungal (fACC2); Table 2a) [nM] | IC50 (fungal (fACC2); Table 2b, additional results) [nM] | other results |
| --- | --- | --- | --- | --- | --- | --- | --- | --- | --- | --- | --- | --- | --- | --- | --- | --- | --- | --- | --- | --- | --- |
| COc1ccc(F)cc1[C@H](Cn1c(=O)n(C(C)(C)C(=O)N2CCCC2)c(=O)c2c(C)c(-n3nccn3)sc21)OCCN(C)C [Compound I-75, (R)-1-(2-(2-(dimethylamino)ethoxy)-2-(5-fluoro-2-methoxyphenyl)ethyl)-5-methyl-3-(2-methyl-1-oxo-1-(pyrrolidin-1-yl)propan-2-yl)-6-(2H-1,2,3-triazol-2-yl)thieno[2,3-d]pyrimidine-2,4(1H,3H)-dione] | > 40 | > 40 | 2.1 to 4 (≈ 3.35 to 6.37 µM) | 2.01 to 4 (≈ 3.2 to 6.37 µM) | 2.1 to 4 (≈ 3.35 to 6.37 µM) | 1.01 to 2 (≈ 1.61 to 3.19 µM) | > 50 | > 50 | > 50 | > 50 | > 50 | > 50 | > 50 | > 50 | > 50 | > 50 | > 50 | > 50 | 1 to 5 | 1 to 5 | – |
| COc1ccc(F)cc1[C@H](Cn1c(=O)n(C(C)(C)C(=O)NC(C)C)c(=O)c2c(C)c(-n3nccn3)sc21)OCCN(C)C [Compound I-76, (R)-2-(1-(2-(2-(dimethylamino)ethoxy)-2-(5-fluoro-2-methoxyphenyl)ethyl)-5-methyl-2,4-dioxo-6-(2H-1,2,3-triazol-2-yl)-1,4-dihydro-thieno[2,3-d]pyrimidin-3(2H)-yl)-N-isopropyl-2-methylpropanamide] | > 40 | > 40 | – | – | – | – | – | – | – | – | – | – | – | – | – | – | – | – | 1 to 5 | 1 to 5 | MIC (C. krusei; read-out: MIC, C. krusei ATCC 6258, Table 3a, 3 replicates, MIC recorded at 48 h): 2.1 to 4 µg/mL (≈ 3.41 to 6.5 µM); MIC (C. krusei; read-out: MIC, C. krusei ATCC 6258, Table 3b (additional results), 3 replicates, MIC recorded at 48 h): 0.25 to 1 µg/mL (≈ 0.406 to 1.62 µM); MIC (C. parapsilosis; read-out: MIC, C. parapsilosis ATCC 22019, Table 3a, 3 replicates, MIC recorded at 48 h): 2.1 to 4 µg/mL (≈ 3.41 to 6.5 µM); MIC (C. parapsilosis; read-out: MIC, C. parapsilosis ATCC 22019, Table 3b (additional results), 3 replicates, MIC recorded at 48 h): 0.25 to 1 µg/mL (≈ 0.406 to 1.62 µM); IC90 (Botrtyis cinerea (Bc); read-out: Concentration at 90% Inhibition Bc, Botrtyis cinerea, growth inhibition at 48 hours vs 2% DMSO control): > 50 µg/mL; IC90 (Botrtyis cinerea (Bc); read-out: Concentration at 90% Inhibition Bc, Botrtyis cinerea, growth inhibition vs 2% DMSO control at 48 hours): > 50 µg/mL; Concentration at 90% Inhibition Fm [1, 10]: D (compound concentration of >50 ppm at 90% inhibition of fungal pathogens); IC90 [1]: > 50 µg/mL; IC90 ([2]; read-out: Concentration at 90% Inhibition Fv, Fusarium virguliforme, growth inhibition at 48 hours vs 2% DMSO control): > 50 µg/mL; IC90 ([2]; read-out: Concentration at 90% Inhibition Fv, Fusarium virguliforme, growth inhibition vs 2% DMSO control at 48 hours): > 50 µg/mL; IC90 ([3]; read-out: Concentration at 90% Inhibition Pc, Phytophthora capsici, growth inhibition at 48 hours vs 2% DMSO control): > 50 µg/mL; IC90 ([3]; read-out: Concentration at 90% Inhibition Pc, Phytophthora capsici, growth inhibition vs 2% DMSO control at 48 hours): > 50 µg/mL; IC90 (Rhizoctonia solani (Rs); read-out: Concentration at 90% Inhibition Rs, Rhizoctonia solani, mycelial plugs, growth inhibition at 48 hours vs 2% DMSO control): 10 µg/mL (≈ 16.2 µM); IC90 (Rhizoctonia solani (Rs); read-out: Concentration at 90% Inhibition Rs, Rhizoctonia solani, mycelial plugs, growth inhibition vs 2% DMSO control at 48 hours): > 50 µg/mL; IC90 (Septoria tritici (St); read-out: Concentration at 90% Inhibition St, Septoria tritici, growth inhibition at 48 hours vs 2% DMSO control): > 50 µg/mL; IC90 (Septoria tritici (St); read-out: Concentration at 90% Inhibition St, Septoria tritici, growth inhibition vs 2% DMSO control at 48 hours): > 50 µg/mL |
| COc1ccc(F)cc1[C@H](Cn1c(=O)n([C@@H](C)C(=O)NC2CCC2)c(=O)c2c(C)c(-n3nccn3)sc21)OCCO [Compound I-77, (S)—N-cyclobutyl-2-(1-((R)-2-(5-fluoro-2-methoxyphenyl)-2-(2-hydroxyethoxy)ethyl)-5-methyl-2,4-dioxo-6-(2H-1,2,3-triazol-2-yl)-1,4-dihydrothieno[2,3-d]pyrimidin-3(2H)-yl)propanamide] | 10 to 40 | 10 to 40 | 2.1 to 4 (≈ 3.58 to 6.82 µM) | 0.25 to 1 (≈ 0.426 to 1.7 µM) | 1.1 to 2 (≈ 1.88 to 3.41 µM) | 0.25 to 1 (≈ 0.426 to 1.7 µM) | 0.4 (≈ 0.682 µM) | 0.4 (≈ 0.682 µM) | 0.08 (≈ 0.136 µM) | 0.08 (≈ 0.136 µM) | 0.4 (≈ 0.682 µM) | 0.4 (≈ 0.682 µM) | > 50 | > 50 | 2 (≈ 3.41 µM) | 2 (≈ 3.41 µM) | > 50 | > 50 | 1 to 5 | 1 to 5 | – |

Reference: patent US10800791B2, “Triazole ACC inhibitors and uses thereof” (Gilead Apollo, LLC, priority 2015, dated 2020)
